Experimental data reported in patent US20050096564A1, “Method of distributing skin care products” (priority 2001, published 2005).

Assays:
[1] = Study 2: vitamin C concentration in ISF and serum of subjects taking oral vitamin supplements; assay type: in vivo, human; details: Study 2, Supplement Yes
Excerpt: The laser made four pores at each collection site.

[2] = in vivo
Excerpt: The studies included non-smoking, female subjects of good health over the age of 35 years and under the age 55 years with skin type of III or less by the Fitzpatrick Skin classification. […] Acceptable subjects were chronologically enrolled in the study following a randomization code describing what treatment would be applied to which dorsal forearm. […] The subject applied a blinded emulsion designated by a letter to one dorsal forearm and an alternative emulsion with a different designation to the opposite arm, twice per day, for three weeks. […] ISF was extracted from the dorsal forearm, volar upper arm, and serum at one week (“Week 2”) and three weeks after dosing (“Week 4”) and two weeks after the cessation of dosing (“Week 6”).
ISF was extracted from both the treatment site (dorsal forearm) as well as an adjacent, untreated site volar upper arm) following one week of therapy and three weeks of therapy. Subjects ended treatment at this point and returned for a final extraction two weeks later.
The ISF collection period lasted between three and six hours, typically four hours.

SMILES: O=C1O[C@H]([C@@H](O)CO)C(O)=C1O [Vitamin C, vitamin C]
- Vitamin C concentration, MEAN ([1]; Serum): 1.36
- Vitamin C concentration, MEAN ([1]; Sun-exposed site ISF): 1.00
- Vitamin C concentration, MEAN ([1]; Sun-protected site ISF): 1.00
- Influence of topical application on levels at an adjacent, untreated site or the serum [2]: does not influence
- Response of serum level to topical therapy [2]: did not respond
